Data published in patent US10758539B2, “Therapeutic compounds and uses thereof” (Kala Pharmaceuticals, Inc., priority 2013, dated 2020).
Where two headings read alike, the source gives them in different places.

Experiments:
[1] = Physical and chemical stability of Compound 4 solutions at ambient temperature; type: physicochemical; conditions: 20-25° C.
Method: In this example, Compound 4 was formulated as a solution for topical ocular administration. Solutions of Compound 4 were formulated at a range of concentrations. Briefly, Compound 4 was first completely solubilized using an acidic solution (0.1N HCl) at a high concentration of ˜5% (w/v). The final formulation was diluted to 0.5, 0.1, or 0.05% (w/v) Compound 4 into 20 mM Citrate buffered solution containing TWEEN 80 as described in Table 7. Following dilution, the pH's of the formulations were estimated to be ˜5.5-6.5, using a universal pH indicator solution (Ricca).
Solution physical and chemical stability at ambient temperature (20-25° C.) were evaluated 10-21 days after initial formulation (tfinal). Physical stability was assessed visually. No precipitation or sedimentation in any samples was observed. All formulations maintained good chemical stability, within 10% of target concentration at tfinal. The API purity as defined by % peak area for all formulations were also high, at >99% (Table 8). Formulations pH's were also measured using a universal pH indicator solution (RICCA) and confirmed be similar to those at initial time of formulation.

[2] = Particle size of compounds milled with PLURONIC F127 as MPP, by dynamic light scattering; type: physicochemical; conditions: formulated as MPP, milled with PLURONIC F127, buffered with DPBS
Excerpt: The compounds of the present invention synthesized in accordance with the preceding Examples were formulated as mucus penetrating particles (MPP). Specifically, Compound 4 of Example 1, Compound 9 of Example 2, and Compound 13 of Example 3 were each milled in the presence of PLURONIC F127 (F127) to determine whether F127 1) aids particle size reduction to several hundreds of nanometers and 2) physically (non-covalently) coats the surface of generated nanoparticles with a mucoinert coating that would minimize particle interactions with mucus constituents and prevent mucus adhesion.
A milling procedure was employed in which an aqueous dispersion containing coarse drug particles and PLURONIC F127 (F127) was milled with grinding medium until particle size was reduced below 400 nm as measured by dynamic light scattering. Table 4 lists the size of particles and polydispersity index (a measure of the width of the particle size distribution) generated using this technique. In this example suspensions were buffered using DPBS (Dulbecco's Phosphate-Buffered Saline) which yields a suspension that is both isotonic and has a physiologically relevant pH.

[3] = Pharmacokinetic study, back of the eye drug exposure after topical instillation of MPP; type: in vivo, Dutch-belted rabbits; conditions: Dutch-belted, rabbit, topical or ocular, 50 μL of 0.5% MPP, MPP 0.5%, 50 μL topical, BID 5 days, 8 mm round punch
Excerpt: (§1) Dutch-belted rabbits were used in these studies.
The portion of the retina and choroid collected and analyzed was an 8 mm round punch where the macula is located in humans.

[4] = Draize-Ocular Irritation assessment during the PK study; type: in vivo, Dutch-belted rabbits; conditions: MPP 0.5%, 50 μL topical, BID 5 days
Excerpt: as §1

[5] = target API 0.05% (w/v), TWEEN 80 0.05% (w/v), tfinal 13 days
[6] = target API 0.10% (w/v), TWEEN 80 0.1% (w/v), tfinal 21 days
[7] = target API 0.50% (w/v), TWEEN 80 4% (w/v), tfinal 10 days

For COc1cc2c(Oc3ccc4[nH]c(C)cc4c3F)ncnc2cc1OCCCN1CCC2(CC1)COC2 [Compound 4, 7-(3-(4-(4-fluoro-2-methyl-1H-indol-5-yloxy)-6-methoxyquinazolin-7-yloxy)propyl)-2-oxa-7-azaspiro[3.5]nonane], the “API % (w/v) at t = tfinal” value [1, 5] was 0.05 % (w/v), the “API % peak area at t = tfinal” value [1, 5] was 99.45% and the “API % (w/v) at t = tfinal” value [1, 6] was 0.11 % (w/v). The “API % peak area at t = tfinal” value [1, 6] was 99.47%, the “API % (w/v) at t = tfinal” value [1, 7] was 0.51 % (w/v) and the “API % peak area at t = tfinal” value [1, 7] was 99.27%. For the same compound, the “Particle Size” value [2] was 270 nm, the “Polydispersity Index (PDI)” value [2] was 0.142 and the AUC(0-t) ([3]; choroid, read-out: AUC0-last Choroid) was 37.2 µM·h. The Cmax ([3]; choroid, read-out: Cmax Choroid) was 3900 nM, the AUC(0-t) ([3]; retina, read-out: AUC0-last Retina) was 1.15 µM·h and the Cmax ([3]; retina, read-out: Cmax Retina) was 193 nM. For the same compound, the “Draize-Ocular Irritation” value [4] was “no irritation was seen”.
For CCCNC(=O)n1c(C)cc2c(F)c(Oc3ncnc4cc(OC)c(OC)cc34)ccc21 [Compound 13, 5-(6,7-Dimethoxyquinazolin-4-yloxy)-4-fluoro-2-methyl-N-propyl-1H-indole-1-carboxamide], the “Particle Size” value [2] was 165 nm and the “Polydispersity Index (PDI)” value [2] was 0.227.
